From patent EP0008361A1, “Halogen-substituted thiophene derivatives and method for their preparation” (priority 1978, dated 1980)
Where two headings read alike, the source gives them in different places.

Legend:
[1] = tested on: Stubenfliegen-Larven (Musca domestica); assay: Breeding test with housefly larvae on treated nutrient medium; type: in vivo; conditions: development observed over one week; for Mortalitätsrate: Wirkstoffkonzentration 50 ppm; for mortality at 10 µg/mL / mortality at 25 µg/mL: Musca domestica, 168 h, read-out: Mortalitätsrate; for mortality at 10 µg/mL: Wirkstoffkonzentration 10 ppm; for mortality at 25 µg/mL: Wirkstoffkonzentration 25 ppm
Protocol: Zuchtversuch mit Stubenfliegen-Larven (Musca domestica)
50 g eines Nährbodens aus Bäckerhefe, Trockenmilch, Wasser und Agar werden in warmem Zustand gründlich mit der wäßrigen Wirkstoffaufbereitung gemischt.
Nach dem Erkalten belegt man den Nährboden mit ca. 0,1 ml Fliegeneiern und beobachtet deren Entwicklung über eine Woche.

[2] = tested on: Wurzelgallennemathoden (Meloidogyne incognita); assay: Action on root-knot nematodes, drench of tomato plants in infested compost soil; type: in vivo; conditions: 30 ml drench, roots rated after 6 to 8 weeks
Protocol: Wirkung auf Wurzelgallennemathoden (Meloidogyne incognita)
Junge Tomatenpflanzen werden in je 500 g Komposterde gepflanzt, die stark mit Wurzelgallennematoden infiziert ist.
Nach 3 Tagen erfolgt die Behandlung mit der wäßrigen Wirkstoffaufbereitung durch Gießen von 30 ml Aufbereitung.
Nach 6 bis 8 Wochen bonitiert man die Wurzeln auf Gallenbildung.

[3] = tested on: Spinnmilben (Tetranychus telarius); conditions: assessed after 6 days
[4] = tested on: Moskito-Larven (Aedes aegypti); conditions: Wirkstoffkonzentration 1 ppm; 4th instar larvae, 20°C, after 24 hours
Blattläuse (Aphis fabae) = conditions: evaluated after 24 hours
[5] = tested on: Spinnmilben (Tetranychus telarius); assay: whole plant or invertebrate; conditions: 144 h, read-out: Mortalitätsrate
[6] = tested on: Moskito-Larven (Aedes aegypti); assay: whole plant or invertebrate; conditions: 24 h, read-out: Mortalitätsrate
[7] = Wirkstoffkonzentration 0,05 (unit not given)

**Q.** `CCOP(=S)(OCC)SCc1ccsc1` [Wirkstoff V2, 0,0-Diäthyl-S-(tienyl-4-methyl)-dithiophosphat, reference compound] was tested. Which Mortalitätsrate [1] did it give?
**A.** Its Mortalitätsrate is “unwirksam”.

**Q.** What about the Gallenbildung ([2]; Wirkstoffkonzentration 0,1 %) of the same compound?
**A.** Its Gallenbildung is “unwirksam”.

**Q.** And the Mortalitätsrate ([3]; Wirkstoffkonzentration 0,05 %)?
**A.** The Mortalitätsrate was “unwirksam”.

**Q.** And the Mortalitätsrate [4]?
**A.** The Mortalitätsrate was “unwirksam”.

**Q.** And the Mortalitätsrate (Blattläuse (Aphis fabae); [7])?
**A.** Its Mortalitätsrate is “unwirksam”.

**Q.** What about the mortality at 0.1 % [5] of the same compound?
**A.** The mortality at 0.1 % was 80%.

**Q.** Which Mortalitätsrate [1] does the source give for `CCOP(=S)(OCC)SCc1csc(Cl)c1Cl` [Wirkstoff V3, 0,0-Diäthyl-S-(2,3-dichlor-thienyl-4-methyl)-dithiophosphat] here?
**A.** The Mortalitätsrate was “unwirksam”.

**Q.** What about the Mortalitätsrate ([3]; Wirkstoffkonzentration 0,1 %) of the same compound?
**A.** Its Mortalitätsrate is “unwirksam”.

**Q.** What about the Mortalitätsrate [4] of the same compound?
**A.** Its Mortalitätsrate is “unwirksam”.

**Q.** With `CNC(=O)CSP(=S)(OC)OC` [Wirkstoff V1, 0,0-Dimethyl-S-(N-methyl-carbamoylmethyl)-phosphordi-thioat] as the compound, how does the Gallenbildung ([2]; Wirkstoffkonzentration 0,1 %) read?
**A.** The Gallenbildung was “unwirksam”.

**Q.** With `CCOP(=O)(SCc1csc(Cl)c1Cl)SC(C)CC` (stereo not shown) [Wirkstoff III] as the compound, how does the mortality at 10 µg/mL [1] read?
**A.** Its mortality at 10 µg/mL is 100%.

**Q.** What about the mortality at 25 µg/mL [1] of the same compound?
**A.** The mortality at 25 µg/mL was 100%.

**Q.** And the Gallenbildung ([2]; Wirkstoffkonzentration 0,05 %)?
**A.** The Gallenbildung was “keine Gallenbildung”.

**Q.** And the mortality at 0.01 % [5]?
**A.** Its mortality at 0.01 % is 100%.

**Q.** And the mortality at 0.02 % [5]?
**A.** The mortality at 0.02 % was 100%.

**Q.** And the mortality at 0.05 % [5]?
**A.** The mortality at 0.05 % was 100%.

**Q.** What about the mortality at 0.25 µg/mL [6] of the same compound?
**A.** The mortality at 0.25 µg/mL was 100%.

**Q.** And the mortality at 0.5 µg/mL [6]?
**A.** Its mortality at 0.5 µg/mL is 100%.

**Q.** And the mortality at 1 µg/mL [6]?
**A.** Its mortality at 1 µg/mL is 100%.

**Q.** How did the mortality at 10 µg/mL [1] turn out when `CCOP(=O)(SCc1csc(Cl)c1Cl)SCC(C)C` (stereo not drawn) [Wirkstoff I, O-Äthyl-S-isobutyl-S-(2,3-dichlor-thienyl-4-methyl)-dithiophosphat] was run?
**A.** The mortality at 10 µg/mL was 80%.

**Q.** What about the mortality at 25 µg/mL [1] of the same compound?
**A.** Its mortality at 25 µg/mL is 100%.

**Q.** What about the Mortalitätsrate (Blattläuse (Aphis fabae); Wirkstoffkonzentration 0,02 (unit not given)) of the same compound?
**A.** The Mortalitätsrate was 90%.

**Q.** What about the Mortalitätsrate (Blattläuse (Aphis fabae); [7]) of the same compound?
**A.** The Mortalitätsrate was 100%.

**Q.** What about the mortality at 0.02 % [5] of the same compound?
**A.** The mortality at 0.02 % was 100%.

**Q.** And the mortality at 0.05 % [5]?
**A.** Its mortality at 0.05 % is 100%.
